Source: patent publication EP0311322B1, “Pyridine or pyridazine derivatives as cardio-protective agents and for the treatment of ischemic disease, and process for their preparation” (FUJISAWA PHARMACEUTICAL CO., LTD., priority 1987, dated 1989)

Key:
male ddY mice = test: Test 4: foot edema after occlusion of the right leg with a rubber band and release in mice; type: in vivo; settings: 20 min occlusion, 20 min after cutting the band
Procedure: Five male ddY mice weighing 27-32 g were used for each group. After test compound was administered intravenously, the right leg was occluded by binding 10 times a rubber band (diameter : 42 mm) round it. After 20 minutes later, the rubber band was cut and thickness of foot pad was measured by a dial gage immediately and 20 minutes after cutting the band. The difference of these two values was regarded as edema.

[1] = tested on: heart isolated from male guinea-pig; test: Test 1: isolated guinea-pig heart perfused in the Langendorff mode, global ischemia (35 min) and reperfusion (40 min); settings: for % change from control Cardiac depression (pre-ischemia) LVSP x HR: 15 min before ischemia; for % change from control recovery of ATP content (% increase): after 35 min ischemia and 40 min reperfusion
Procedure: The heart was isolated from male guinea-pig weighing 550-650 g and was perfused in the Langendorff mode at 37°C at a constant perfusion pressure of 80 cm H₂O. The perfusion medium was Krebs-Henseleit bicarbonate solution containing 11 mM glucose. The solution was equilibrated with 95% O₂ and 5% CO₂ gas mixture at pH 7.4. A latex balloon was placed in the left ventricular cavity and then left ventricular systolic (LVSP) and diastolic (LVDP) pressure were measured. Heart rate (HR) was triggered by the pulse pressure. Coronary flow was monitored with electromagnetic flow probe placed on the aorta.
The heart was perfused for 45 min. with the perfusion medium and then for 15 min. with the perfusion medium containing the test compound. The heart was then subjected to the global ischemia by stopping the perfusion. After 35 min. of ischemia, the heart was reperfused by the perfusion medium containing no test compound. At the end of 40 min. reperfusion, the cardiac function was monitored. The heart was immidiately frozen for the estimation of ATP content.

Male SD rats [2] = test: Test 2: left coronary artery occlusion (5 min) and reperfusion (10 min) in anesthetized rats, incidence of VT, VF and mortality; type: in vivo; settings: 10 min before occlusion
Procedure: Male SD rats weighing 270-340 g were anesthetized with sodium pentobarbital. The chest was opened, and then a thread was placed around the left coronary artery near the origin. Both ends of the thread were passed through a small plastic tube. After standing for 5 minutes, test compound was administered intravenously. After 10 minutes, the left coronary artery was occluded for 5 minutes by pulling the thread and pressing the plastic tube to the artery and then reperfusion was achieved by releasing the occlusion for 10 minutes. Electrocardiograms were recorded and analyzed for checking inhibitory rate of incidence of ventricular tachycardia (VT) and ventricular fibrillation (VF) in comparison with control group, and inhibitory rate of mortality as compared with control group was also calculated. 11-18 rats were used for each test group.

Male SD rats [3] = test: Test 3: myocardial infarction induced by DL-isoproterenol hydrochloride in rats, mortality and myocardial ATP content; type: in vivo; settings: dose 1.0 mg/kg intraperitoneally, DL-isoproterenol hydrochloride 120 mg/kg subcutaneously
Procedure: Ten male SD rats weighing 140-170 g were used for each group. Test compound was administered intraperitoneally, and then myocardial infarction was induced by administering DL-isoproterenol hydrochloride (120 mg/kg) subcutaneously. After 24 hours, mortality was examined. Survival rats were anesthetized and their hearts were taken out and frozen immediately for the measurement of myocardial ATP content.

[4] = concentration 1 x 10⁻⁵ g/ml in perfusion medium

Row | Structure (SMILES) | Inhibition (%) of foot edema (male ddY mice; dose 1.0 mg/kg intravenously) | % change from control coronary flow ([1]; concentration 1 x 10⁻⁵ g/ml) | % change from control Cardiac depression (pre-ischemia) LVSP x HR [1, 4] | % change from control recovery of ATP content (% increase) ([1]; concentration 1 x 10⁻⁵ g/ml) | further results
1 | Cc1nc(-c2ccccc2)cc(-c2cccc([N+](=O)[O-])c2)c1C(=O)NCCN1CCOCC1 [(a), 3-(2-Morpholinoethylcarbamoyl)-2-methyl-4-(3-nitrophenyl)-6-phenylpyridine] | 30% | 32.0% | -1.7% | 89.5% | Inhibition (%) of foot edema (male ddY mice; dose 0.1 mg/kg intravenously): 12%; Inhibition (%) of foot edema (male ddY mice; dose 10 mg/kg intravenously): 42%; % change from control coronary flow ([1]; concentration 1 x 10⁻⁶ g/ml): -1.6%; % change from control Cardiac depression (pre-ischemia) LVSP x HR ([1]; concentration 1 x 10⁻⁶ g/ml in perfusion medium): 4.1%; % change from control recovery of ATP content (% increase) ([1]; concentration 1 x 10⁻⁶ g/ml): 96.3%; Inhibition (%) of incidence as compared with control group Mortality (Male SD rats [2]; dose 1.0 mg/kg intravenously): 13.5%; Inhibition (%) of incidence as compared with control group VF (Male SD rats [2]; dose 1.0 mg/kg intravenously): 28.0%; Inhibition (%) of incidence as compared with control group VT (Male SD rats [2]; dose 1.0 mg/kg intravenously): 0%; Inhibition (%) of incidence as compared with control group Mortality (Male SD rats [2]; dose 3.2 mg/kg intravenously): 52.5%; Inhibition (%) of incidence as compared with control group VF (Male SD rats [2]; dose 3.2 mg/kg intravenously): 60.4%; Inhibition (%) of incidence as compared with control group VT (Male SD rats [2]; dose 3.2 mg/kg intravenously): 0%; Inhibition (%) of incidence as compared with control group Mortality (Male SD rats [2]; dose 10 mg/kg intravenously): 78.9%; Inhibition (%) of incidence as compared with control group VF (Male SD rats [2]; dose 10 mg/kg intravenously): 82.4%; Inhibition (%) of incidence as compared with control group VT (Male SD rats [2]; dose 10 mg/kg intravenously): 5.6%; Inhibition (%) of mortality (Male SD rats [3]; after 24 hours, % change as compared with mortality rate in control group): 75%; Recovery (%) of ATP content (Male SD rats [3]; myocardial ATP of surviving rats after 24 hours): 67%
2 | CN1CCN(Cc2nnc(-c3ccccc3)cc2-c2cccc([N+](=O)[O-])c2)CC1 [(b), 3-(4-Methylpiperazin-1-ylmethyl)-4-(3-nitrophenyl)-6-phenylpyridazine] |  | -30.6% | -95.8% | 100.4% | 
3 | Cc1cc(-c2ccccc2)nc(-c2cccc([N+](=O)[O-])c2)c1C(=O)NCCN1CCOCC1 [(c), 4-Methyl-3-(2-morpholinoethylcarbamoyl)-2-(3-nitrophenyl)-6-phenylpyridine] |  | 31.9% | -38.9% | 71.3% | 
4 | Cc1nc(-c2ccccc2)cc(-c2cccc([N+](=O)[O-])c2)c1C(=O)N1CCN(C)CC1 [(d), 2-Methyl-3-(4-methylpiperazin-1-ylcarbonyl)-4-(3-nitrophenyl)-6-phenylpyridine] | 41.5% | 5.0% | -29.7% | 123.6% | 
5 | Cc1nc(-c2ccccc2)cc(-c2cccc([N+](=O)[O-])c2)c1C(=O)NCCN(C)C [(e), 3-(2-Dimethylaminoethylcarbamoyl)-2-methyl-4-(3-nitrophenyl)-6-phenylpyridine] |  | -10.2% | -90.6% | 76.3% | 
6 | Cc1nc(-c2ccccc2)cc(-c2cccc([N+](=O)[O-])c2)c1C(=O)NCCN1CCSCC1.O=C(O)/C=C/C(=O)O [(f), 2-Methyl-4-(3-nitrophenyl)-6-phenyl-3-[2-(4-thiomorpholinyl)ethylcarbamoyl]pyridine fumarate] | 22% | 22.5% | -45.2% | 64.9% | 
7 | Cc1nc(-c2ccccc2)cc(-c2cccc([N+](=O)[O-])c2)c1NC(=O)NCCN(C)C [(g), 3-[3-(2-Dimethylaminoethyl)ureido]-2-methyl-4-(3-nitrophenyl)-6-phenylpyridine] |  | -42.7% | -85.7% | 78.6% | 
